Data as given in article PMC11149917, “Translational and Therapeutic Evaluation of RAS-GTP Inhibition by RMC-6236 in RAS-Driven Cancers” (Cancer Discovery, 2024).
Like-named read-outs stand apart in the source and are kept apart here.

Test: Mouse blood and tissue PK (LC/MS-MS)
Assay type: in vivo
Details: for Kp: tumor relative to whole blood
Procedure: For single-dose PKPD study, mice were randomized and assigned into groups (n = 3/dose/time point). […] Blood and tissues, including the tumor, brain, colon, ear skin, and muscle, were harvested at indicated time points. […] The whole blood, tumor, brain, colon, and ear skin concentrations of RMC-6236 were determined using liquid chromatography–tandem mass spectrometry (LC/MS-MS) methods. […] After thorough mixing and centrifugation, the supernatant was diluted with water or directly analyzed on a Sciex 5500 or Sciex 6500+ triple quadrupole mass spectrometer equipped with an ACQUITY or Shimadzu UPLC system. […] Bioanalysis on blood and tissue samples from xenograft models was run at Pharmaron and Wuxi AppTec. Concentrations reported as below the quantification limit were treated as zero for PK analysis. PK parameters were calculated by noncompartmental analysis of the concentration–time profiles using Phoenix WinNonLin (version 8.3 Certara). Apparent terminal elimination half-life (t1/2) values were calculated as ln(2)/k, where k represents the terminal elimination rate constant. Area under the concentration–time curve (AUC) values were estimated using a linear trapezoidal method. AUClast values were calculated from the dosing time to the last quantifiable concentration. Maximum concentration (Cmax) was recorded as observed.

[1] = NCI-H2122 (25 mg/kg), single dose

In the case of `CCn1c(-c2cc(N3CCN(C)CC3)cnc2[C@H](C)OC)c2c3cc(ccc31)-c1csc(n1)C[C@H](NC(=O)[C@H]1C[C@@H]1C)C(=O)N1CCC[C@H](N1)C(=O)OCC(C)(C)C2` [RMC-6236], the “Tumor AUClast” value [1] is reported as 50057 ng·h/mL, the “Tumor Cmax” value [1] is reported as 3350 ng/mL and the “Brain Cmax” value (Naïve Mice #1 (10 mg/kg), single dose) is reported as 25 ng/mL. For the same compound, the “Brain Cmax” value (Naïve Mice #1 (50 mg/kg), single dose) was 161 ng/mL, the concentration at 4 h (mouse, ear skin, oral, 25 mg/kg, sheet Ear Skin, model KP-4, study KP-4 #5, 25 mg/kg, read-out: RMC-6236 (nM) Tumor) was 2790 nM and the concentration at 8 h (mouse, ear skin, oral, 25 mg/kg, sheet Ear Skin, model KP-4, study KP-4 #5, 25 mg/kg, 8h, read-out: RMC-6236 (nM) Tumor) was 1610 nM. The concentration at 48 h (mouse, ear skin, oral, 25 mg/kg, sheet Ear Skin, model KP-4, study KP-4 #5, 25 mg/kg, 48h, read-out: RMC-6236 (nM) Tumor) was 221 nM, the Kp (mouse, oral, 3 mg/kg, NCI-H441 (3 mg/kg), single dose, read-out: Tumor/Blood AUC Ratio) was 5.4 and the Kp (mouse, oral, 10 mg/kg, NCI-H441 (10 mg/kg), single dose, read-out: Tumor/Blood AUC Ratio) was 4.6. The Kp (mouse, oral, 25 mg/kg, HPAC (25 mg/kg), single dose, read-out: Tumor/Blood AUC Ratio) was 6.6, the Kp (mouse, oral, 25 mg/kg, KP-4 (25 mg/kg), single dose, read-out: Tumor/Blood AUC Ratio) was 6.4 and the Kp (mouse, oral, 25 mg/kg, NCI-H358 (25 mg/kg), single dose, read-out: Tumor/Blood AUC Ratio) was 5.9. It also gave a Kp (mouse, oral, 25 mg/kg, NCI-H441 #2 (25 mg/kg), QD x 10 days, read-out: Tumor/Blood AUC Ratio) of 4.9, a Kp (mouse, oral, 25 mg/kg, NCI-H441 (25 mg/kg), single dose, read-out: Tumor/Blood AUC Ratio) of 6.1 and a Kp (mouse, oral, 25 mg/kg, NCI-H2122 (25 mg/kg), single dose, read-out: Tumor/Blood AUC Ratio) of 6.3. It also gave a Kp (mouse, oral, various xenograft tumors, read-out: exposure in xenograft tumors relative to blood) of 3 to 7, a concentration at 8 h (mouse, tumor, oral, 0.3 mg/kg, HPAC #11, 0.3 mg/kg, 8h, individual animals, read-out: RMC-6236 (nM) Tumor) of 37 nM and a concentration at 24 h (mouse, tumor, oral, 0.3 mg/kg, NCI-H441 xenograft tumor, study NCI-H441#10, 0.3 mg/kg, 24h, read-out: RMC-6236 (nM) Tumor) of 36.8 nM. It also gave a concentration at 8 h (mouse, tumor, oral, 0.3 mg/kg, NCI-H441 xenograft tumor, study NCI-H441#13, 0.3 mg/kg, 8h, read-out: RMC-6236 (nM) Tumor) of 89.5 nM, a concentration at 8 h (mouse, tumor, oral, 1 mg/kg, HPAC #11, 1 mg/kg, 8h, individual animals, read-out: RMC-6236 (nM) Tumor) of 216 nM and a concentration at 8 h (mouse, tumor, oral, 1 mg/kg, NCI-H441 xenograft tumor, study NCI-H441#10, 1 mg/kg, 8h, read-out: RMC-6236 (nM) Tumor) of 129 nM. For the same compound, the concentration at 8 h (mouse, tumor, oral, 1 mg/kg, NCI-H441 xenograft tumor, study NCI-H441#13, 1 mg/kg, 8h, read-out: RMC-6236 (nM) Tumor) was 114 nM, the concentration at 24 h (mouse, tumor, oral, 1 mg/kg, NCI-H441 xenograft tumor, study NCI-H441#13, 1 mg/kg, 24h, read-out: RMC-6236 (nM) Tumor) was 53.2 nM and the concentration at 8 h (mouse, tumor, oral, 3 mg/kg, HPAC #4, 3 mg/kg, 8h, individual animals, read-out: RMC-6236 (nM) Tumor) was 245 nM. It also gave a concentration at 24 h (mouse, tumor, oral, 3 mg/kg, HPAC #4, 3 mg/kg, 24h, individual animals, read-out: RMC-6236 (nM) Tumor) of 205 nM, a concentration at 48 h (mouse, tumor, oral, 3 mg/kg, HPAC #4, 3 mg/kg, 48h, individual animals, read-out: RMC-6236 (nM) Tumor) of 31.9 nM and a concentration at 4 h (mouse, tumor, oral, 3 mg/kg, KP-4, study KP-4 #6, 3 mg/kg, read-out: RMC-6236 (nM) Tumor) of 264 nM. It also gave a concentration at 8 h (mouse, tumor, oral, 3 mg/kg, KP-4, study KP-4 #6, 3 mg/kg, 8h, read-out: RMC-6236 (nM) Tumor) of 340 nM, a concentration at 12 h (mouse, tumor, oral, 3 mg/kg, KP-4, study KP-4 #6, 3 mg/kg, 12h, read-out: RMC-6236 (nM) Tumor) of 298 nM and a concentration at 48 h (mouse, tumor, oral, 3 mg/kg, KP-4, study KP-4 #6, 3 mg/kg, 48h, read-out: RMC-6236 (nM) Tumor) of 29 nM. It also gave a concentration at 24 h (mouse, tumor, oral, 3 mg/kg, NCI-H441 xenograft tumor, study NCI-H441#6, 3 mg/kg, 24h, read-out: RMC-6236 (nM) Tumor) of 159 nM, a concentration at 48 h (mouse, tumor, oral, 3 mg/kg, NCI-H441 xenograft tumor, study NCI-H441#6, 3 mg/kg, 48h, read-out: RMC-6236 (nM) Tumor) of 63 nM and a concentration at 4 h (mouse, tumor, oral, 10 mg/kg, HPAC #4, 10 mg/kg, individual animals, read-out: RMC-6236 (nM) Tumor) of 817 nM. It also gave a concentration at 8 h (mouse, tumor, oral, 10 mg/kg, HPAC #4, 10 mg/kg, 8h, individual animals, read-out: RMC-6236 (nM) Tumor) of 1230 nM, a concentration at 24 h (mouse, tumor, oral, 10 mg/kg, HPAC #4, 10 mg/kg, 24h, individual animals, read-out: RMC-6236 (nM) Tumor) of 300 nM and a concentration at 48 h (mouse, tumor, oral, 10 mg/kg, HPAC #4, 10 mg/kg, 48h, individual animals, read-out: RMC-6236 (nM) Tumor) of 128 nM. The concentration at 48 h (mouse, tumor, oral, 10 mg/kg, KP-4, study KP-4 #6, 10 mg/kg, 48h, read-out: RMC-6236 (nM) Tumor) was 235 nM, the concentration at 1 h (mouse, tumor, oral, 10 mg/kg, Model Validation Dataset, 10mg/kg_study6, 1 h, read-out: Tumor Concentration) was 340 nM and the concentration at 8 h (mouse, tumor, oral, 10 mg/kg, Model Validation Dataset, 10mg/kg_study6, 8 h, read-out: Tumor Concentration) was 1010 nM. For the same compound, the concentration at 24 h (mouse, tumor, oral, 10 mg/kg, Model Validation Dataset, 10mg/kg_study6, 24 h, read-out: Tumor Concentration) was 353 nM, the concentration at 48 h (mouse, tumor, oral, 10 mg/kg, Model Validation Dataset, 10mg/kg_study6, 48 h, read-out: Tumor Concentration) was 214 nM and the concentration at 8 h (mouse, tumor, oral, 10 mg/kg, NCI-H441 xenograft tumor, study NCI-H441#6, 10 mg/kg, 8h, read-out: RMC-6236 (nM) Tumor) was 904 nM. For the same compound, the concentration at 24 h (mouse, tumor, oral, 10 mg/kg, NCI-H441 xenograft tumor, study NCI-H441#6, 10 mg/kg, 24h, read-out: RMC-6236 (nM) Tumor) was 519 nM, the concentration at 48 h (mouse, tumor, oral, 10 mg/kg, NCI-H441 xenograft tumor, study NCI-H441#6, 10 mg/kg, 48h, read-out: RMC-6236 (nM) Tumor) was 213 nM and the concentration at 8 h (mouse, tumor, oral, 10 mg/kg, NCI-H441 xenograft tumor, study NCI-H441#10, 10 mg/kg, 8h, read-out: RMC-6236 (nM) Tumor) was 685 nM. The concentration at 24 h (mouse, tumor, oral, 10 mg/kg, NCI-H441 xenograft tumor, study NCI-H441#10, 10 mg/kg, 24h, read-out: RMC-6236 (nM) Tumor) was 541 nM and the concentration at 48 h (mouse, tumor, oral, 10 mg/kg, NCI-H441 xenograft tumor, study NCI-H441#10, 10 mg/kg, 48h, read-out: RMC-6236 (nM) Tumor) was 153 nM.
